For 28 compounds, IC50 results are on record in US8012956B2, “Tropane compounds” (Exelixis, Inc., priority 2007, dated 2011).

The pIC50 is −log10 of the IC50, conventionally taken in molar units. Read a high pIC50 as a small IC50.

pIC50: −log10 of the molar value.

The target of the assay is HSP90 (Homo sapiens, UniProt P07900). The experiment in a line: HSP90 inhibition (HSP90 IC50). In kind it is biochemical.
On to `CCN(CC)CCOc1ccc([C@H](C)NC(=O)c2ccc(N3C4CCC3CC(NC(=O)c3cccc(OC)c3C)C4)nc2)cc1` (stereo partly drawn) [N-[(1S)-1-(4-{[2-(diethylamino)ethyl]oxy}phenyl)ethyl]-6-[3-endo-({[2-methyl-3-(methyloxy)phenyl]carbonyl}amino)-8-azabicyclo[3.2.1]oct-8-yl]pyridine-3-carboxamide], for which the pIC50 is greater than 6.30.

For `CNC(=O)[C@@H](NC(=O)c1ccc(N2C3CCC2CC(NC(=O)c2cccc(OC)c2C)C3)nc1)c1ccc(OC)cc1` (stereo partly drawn) [N-{(1S)-2-(methylamino)-1-[4-(methyloxy)phenyl]-2-oxoethyl}-6-[3-endo-({[2-methyl-3-(methyloxy)phenyl]carbonyl}amino)-8-azabicyclo[3.2.1]oct-8-yl]pyridine-3-carboxamide], the pIC50 is 6.00 to 6.30.

In turn, `Cc1c(O)cccc1C(=O)NC1CC2CCC(C1)N2c1ccc(C(=O)NCc2ccccc2)cn1` (stereo not drawn) [6-(3-endo-{[(3-hydroxy-2-methylphenyl)carbonyl]amino}-8-azabicyclo[3.2.1]oct-8-yl)-N-(phenylmethyl)pyridine-3-carboxamide] showed a pIC50 of 5.70 to 6.00.

Compound `COc1cccc(C(=O)N[C@H]2C[C@H]3CC[C@@H](C2)N3c2ccc(C(=O)NCC(C)C)cn2)c1C` [6-[3-endo-({[2-methyl-3-(methyloxy)phenyl]carbonyl}amino)-8-azabicyclo[3.2.1]oct-8-yl]-N-(2-methylpropyl)pyridine-3-carboxamide] gave a negative-log IC50 (pIC50) of 5.70 to 6.00.

In turn, `COc1ccc([C@@H](C)NC(=O)c2ccc(N3C4CCC3CC(NC(=O)c3cccc(OC)c3C)C4)nc2)cc1` (stereo partly drawn) [6-[3-endo-({[2-methyl-3-(methyloxy)phenyl]carbonyl}amino)-8-azabicyclo[3.2.1]oct-8-yl]-N-{(1R)-1-[4-(methyloxy)phenyl]ethyl}pyridine-3-carboxamide] showed a pIC50 of 5.00 to 5.70.

Consider `COc1cccc(C(=O)N[C@H]2C[C@H]3CC[C@@H](C2)N3c2ccc(C(=O)NCCN(C)C)cn2)c1C` [N-[2-(dimethylamino)ethyl]-6-[3-endo-({[2-methyl-3-(methyloxy)phenyl]carbonyl}amino)-8-azabicyclo[3.2.1]oct-8-yl]pyridine-3-carboxamide], for which the pIC50 was 5.70 to 6.00.

For the compound `COc1cccc(C(=O)N[C@H]2C[C@H]3CC[C@@H](C2)N3c2ccc(C(=O)NC3CC3)cn2)c1C` [N-cyclopropyl-6-[3-endo-({[2-methyl-3-(methyloxy)phenyl]carbonyl}amino)-8-azabicyclo[3.2.1]oct-8-yl]pyridine-3-carboxamide], the pIC50 was 5.70 to 6.00.

Turning to `COc1cc(C(=O)N[C@H]2C[C@H]3CC[C@@H](C2)N3c2ccc(C(=O)C3CC3)cn2)c(C)cc1C(N)=O` [N-{8-[5-(cyclopropylcarbonyl)pyridin-2-yl]-8-azabicyclo[3.2.1]oct-3-endo-yl}-2-methyl-5-(methyloxy)benzene-1,4-dicarboxamide], the pIC50 is greater than 6.30.

Turning to `COc1cccc(C(=O)N[C@H]2C[C@H]3CC[C@@H](C2)N3c2ccc(C(=O)NCc3ccc(N4CCCC4)cc3)cn2)c1C` [6-[3-endo-({[2-methyl-3-(methyloxy)phenyl]carbonyl}amino)-8-azabicyclo[3.2.1]oct-8-yl]-N-[(4-pyrrolidin-1-ylphenyl)methyl]pyridine-3-carboxamide], the pIC50 was 6.00 to 6.30.

On to `CCCNc1cc(C(=O)N[C@H]2C[C@H]3CC[C@@H](C2)N3c2ccc(C(=O)C3CC3)cn2)ccc1C(N)=O` [N4-{8-[5-(cyclopropylcarbonyl)pyridin-2-yl]-8-azabicyclo[3.2.1]oct-3-endo-yl}-2-(propylamino)benzene-1,4-dicarboxamide], for which the pIC50 is greater than 6.30.

The compound `Cc1cc(C(=O)N[C@H]2C[C@H]3CC[C@@H](C2)N3c2ccc(C(=O)NC3CN(C)C3)cn2)c(C)cc1C(N)=O` [2,5-dimethyl-N-[8-(5-{[(1-methylazetidin-3-yl)amino]carbonyl}pyridin-2-yl)-8-azabicyclo[3.2.1]oct-3-endo-yl]benzene-1,4-dicarboxamide] showed a pIC50 greater than 6.30.

The compound `COc1cccc(C(=O)N[C@H]2C[C@H]3CC[C@@H](C2)N3c2ccc(C(=O)Nc3ccc4c(c3)OCO4)cn2)c1C` [N-1,3-benzodioxol-5-yl-6-[3-endo-({[2-methyl-3-(methyloxy)phenyl]carbonyl}amino)-8-azabicyclo[3.2.1]oct-8-yl]pyridine-3-carboxamide] gave a pIC50 of 5.70 to 6.00.

The compound `CC(C)[C@@H](C)Nc1cc(C(=O)NC2CC3CCC(C2)N3c2ccc(C(=O)C3CC3)cn2)c(Br)cc1C(N)=O` (stereo partly drawn) [2-bromo-N-{8-[5-(cyclopropylcarbonyl)pyridin-2-yl]-8-azabicyclo[3.2.1]oct-3-endo-yl}-5-{[(1R)-1 2-dimethylpropyl]amino}benzene-1,4-dicarboxamide] showed a pIC50 greater than 6.30.

Consider `CCOc1ccccc1CNC(=O)c1ccc(N2[C@@H]3CC[C@H]2C[C@@H](NC(=O)c2cccc(OC)c2C)C3)nc1` [N-{[2-(ethyloxy)phenyl]methyl}-6-[3-endo-({[2-methyl-3-(methyloxy)phenyl]carbonyl}amino)-8-azabicyclo[3.2.1]oct-8-yl]pyridine-3-carboxamide], for which the pIC50 is 6.00 to 6.30.

`COc1cccc(C(=O)N[C@H]2C[C@H]3CC[C@@H](C2)N3c2ccc(C(=O)NCCCN3CCN(C)CC3)cn2)c1C` [6-[3-endo-({[2-methyl-3-(methyloxy)phenyl]carbonyl}amino)-8-azabicyclo[3.2.1]oct-8-yl]-N-[3-(4-methylpiperazin-1-yl)propyl]pyridine-3-carboxamide] had a negative-log IC50 (pIC50) of 6.00 to 6.30.

`C[C@H](NC(=O)c1ccc(N2C3CCC2CC(NC(=O)c2cccc(N[C@H]4CC[C@H](O)CC4)c2)C3)nc1)c1ccc(N2CCN(C)CC2)cc1` (stereo partly drawn) [6-{3-endo-[({3-[(4-hydroxycyclohexyl)amino]phenyl}carbonyl)amino]-8-azabicyclo[3.2.1]oct-8-yl}-N-{(1S)-1-[4-(4-methylpiperazin-1-yl)phenyl]ethyl}pyridine-3-carboxamide] showed a pIC50 of 5.00 to 5.70.

`Cc1cnc(CNC(=O)c2ccc(N3[C@@H]4CC[C@H]3C[C@@H](NC(=O)c3ccc(C(N)=O)cc3)C4)nc2)cn1` [N-{8-[5-({[(5-methylpyrazin-2-yl)methyl]amino}carbonyl)pyridin-2-yl]-8-azabicyclo[3.2.1]oct-3-endo-yl}benzene-1,4-dicarboxamide] had a pIC50 of 5.70 to 6.00.

With `COCCC(=O)c1ccc(N2[C@@H]3CC[C@H]2C[C@@H](NC(=O)c2ccc(C(N)=O)c(NCC4CC4)c2)C3)nc1` [2-[(cyclopropylmethyl)amino]-N4-(8-{5-[3-(methyloxy)propanoyl]pyridin-2-yl}-8-azabicyclo[3.2.1]oct-3-endo-yl)benzene-1,4-dicarboxamide], the negative logarithm of the IC50 (pIC50) was greater than 6.30.

Compound `COc1ccc([C@H](NC(=O)c2ccc(N3C4CCC3CC(NC(=O)c3cccc(OC)c3C)C4)nc2)C(N)=O)cc1` (stereo partly drawn) [N-{(1S)-2-amino-1-[4-(methyloxy)phenyl]-2-oxoethyl}-6-[3-endo-({[2-methyl-3-(methyloxy)phenyl]carbonyl}amino)-8-azabicyclo[3.2.1]oct-8-yl]pyridine-3-carboxamide] gave a pIC50 of 6.00 to 6.30.

In turn, `CC(=O)c1ccc(N2[C@@H]3CC[C@H]2C[C@@H](NC(=O)c2ccc(C(N)=O)c(NCC4CCCNC4)c2)C3)nc1` (stereo partly drawn) [N4-(8-(5-acetylpyridin-2-yl)-8-azabicyclo[3.2.1]oct-3-endo-yl]-2-[(piperidin-3-ylmethyl)amino]benzene-1,4-dicarboxamide] gave a negative-log IC50 (pIC50) greater than 6.30.

The compound `CC(=O)c1ccc(N2[C@@H]3CC[C@H]2C[C@@H](NC(=O)c2ccc(C(N)=O)c(NC(C)C(C)C)c2)C3)nc1` (stereo partly drawn) [N4-[8-(5-acetylpyridin-2-yl)-8-azabicyclo[3.2.1]oct-3-endo-yl]-2-[(1,2-dimethylpropyl)amino]benzene-1,4-dicarboxamide] had a pIC50 greater than 6.30.

In turn, `CCCCNc1cc(C(=O)N[C@H]2C[C@H]3CC[C@@H](C2)N3c2ccc(C(C)=O)cn2)ccc1C(N)=O` [N4-[8-(5-acetylpyridin-2-yl)-8-azabicyclo[3.2.1]oct-3-endo-yl]-2-(butylamino)benzene-1,4-dicarboxamide] had a pIC50 greater than 6.30.

For `NC(=O)c1ccc(C(=O)NC2CC3CCC(C2)N3c2ccc(C(=O)NC3CCCC3)cn2)cc1N[C@H]1CC[C@H](O)CC1` (stereo partly drawn) [N4-(8-{5-((cyclopentylamino)carbonyl]pyridin-2-yl}-8-azabicyclo[3.2.1]oct-3-endo-yl)-2-[(4-trans-hydroxycyclohexyl)amino]benzene-1,4-dicarboxamide], the pIC50 is greater than 6.30.

Turning to `COc1cc(Nc2cc(C(=O)NC3CC4CCC(C3)N4c3ccc(C(=O)N[C@@H](C)c4ccc(N5CCN(C)CC5)cc4)cn3)ccc2C(N)=O)cc(OC)c1OC` (stereo partly drawn) [N4-(8-{5-[({(1S)-1-[4-(4-methylpiperazin-1-yl)phenyl]ethyl}amino)carbonyl]pyridin-2-yl}-8-azabicyclo[3.2.1]oct-3-endo-yl)-2-{[3,4,5-tris(methyloxy)phenyl]amino}benzene-1,4-dicarboxamide], the pIC50 was greater than 6.30.

For `COc1cccc(C(=O)N[C@H]2C[C@H]3CC[C@@H](C2)N3c2ccc(C(=O)NCc3cccc(OC)c3OC)cn2)c1C` [N-{[2,3-bis(methyloxy)phenyl]methyl}-6-[3-endo-({[2-methyl-3-(methyloxy)phenyl]carbonyl}amino)-8-azabicyclo[3.2.1]oct-8-yl]pyridine-3-carboxamide], the pIC50 is 5.00 to 5.70.

With `COc1cccc(C(=O)NC2CC3CCC(C2)N3c2ccc(C(=O)N[C@@H](C)C(C)C)cn2)c1C` (stereo partly drawn) [N-[(1S)-1,2-dimethylpropyl]-6-[3-endo-({[2-methyl-3-(methyloxy)phenyl]carbonyl}amino)-8-azabicyclo[3.2.1]oct-8-yl]pyridine-3-carboxamide], the pIC50 was 5.70 to 6.00.

The compound `CS(=O)(=O)CCNc1cc(C(=O)N[C@H]2C[C@H]3CC[C@@H](C2)N3c2ccc(C(N)=O)cn2)ccc1C(N)=O` [N4-{8-[5-(aminocarbonyl)pyridin-2-yl]-8-azabicyclo[3.2.1]oct-3-endo-yl}-2-{[2-(methylsulfonyl)ethyl]amino}benzene-1,4-dicarboxamide] showed a pIC50 greater than 6.30.

Regarding `COc1cccc(C(=O)N[C@H]2C[C@H]3CC[C@@H](C2)N3c2ccc(C(=O)NCc3cc(F)ccc3F)cn2)c1C` [N-[(2,5-difluorophenyl)methyl]-6-[3-endo-({[2-methyl-3-(methyloxy)phenyl]carbonyl}amino)-8-azabicyclo[3.2.1]oct-8-yl]pyridine-3-carboxamide], the pIC50 was 6.00 to 6.30.
